Measured values taken from patent US20260315452A1, “PROTEASE INHIBITORS AND USES THEREOF” (priority 2023, published 2026).

Key:
SARS-CoV-2 3CLpro [1] = biological target: T1, SARS-CoV-2 3CLpro (Severe acute respiratory syndrome coronavirus 2, UniProt P0DTD1); assay: Co-crystal structure with SARS-CoV-2 3CLpro; format: binding; conditions: co-crystal with SARS-CoV-2 3CLpro
SARS-CoV-2 3CLpro [2] = biological target: T1, SARS-CoV-2 3CLpro; format: binding; conditions: ITC, 25° C., pH 7.4; versus Ref-2 (compound P2)
SARS-CoV-2 = assay: Anti-SARS-CoV-2 activity in A549 cells expressing the human ACE2 receptor (inhibition of SARS-CoV-2 replication); format: cell-based; conditions: for antiviral potency in A549 cells in comparison with compound Ref-2: versus Ref-2 (FIG. 7); for EC50: Severe acute respiratory syndrome coronavirus 2, A549-ACE2, 24 h, read-out: Antiviral Activity (EC50)
SARS-CoV-2 3CLpro [3] = biological target: T1, SARS-CoV-2 3CLpro; assay: biochemical; conditions: inhibition of SARS-CoV-2 3CLpro; 15 nM 3CLpro, 25 μM fluorogenic substrate, 37° C.; read-out: Inhibitory Activity (IC50)
[4] = Plasma protein binding (PPB) by equilibrium dialysis; format: in vitro ADME; conditions: human and mouse plasma, 4 hours, 37° C., versus Ref-2
Description: The binding of compounds Ref-2, 86, 97, 98 and 170 to human and mouse plasma were measured using equilibrium dialysis. A loading matrix was prepared by diluting of a 400 μM stock of each of the compounds in DMSO by the plasma matrix. To prepare the time zero (To) samples to be used for recovery determination, 50 μL of the loading matrix were transferred in triplicate to the sample collection plate, immediately matched with opposite blank buffer to obtain a final volume of 100 μL of 1:1 matrix/dialysis buffer (v/v) in each well, followed by the addition of 500 μL of stop solution (200 ng/mL of tolbutamide, 200 ng/mL of labetalol, and 50 ng/mL of metformin in acetonitrile) and then stored at 2-8° C. pending further processes along with other post-dialysis samples. To load the dialysis device, 150 μL of the loading matrix and 150 μL of the dialysis buffer were transferred to the donor side and the receiver side of each well, respectively. The dialysis plate was placed in a humidified incubator at 37° C. with 5% CO2 on a shaking platform that rotated slowly (about 100 rpm) for 4 hours, then 50 μL of samples were taken from both the buffer side and the matrix side, and transferred into new 96-well plates. Each sample was mixed with an equal volume of opposite blank buffer (or matrix) to reach a final volume of 100 μL, followed by the addition of 500 µL of stop solution. The mixture was vortexed and centrifuged at 4000 rpm for about 20 minutes, then […] of the supernatant of each sample was removed for LC-MS/MS analysis. The single blank samples were prepared by transferring 50 μL of blank matrix to a 96 well plate and adding 50 μL of blank PBS buffer to each well. The blank plasma must match the species of plasma used in the plasma side of the well. Then the matrix-matched samples were further processed by adding 500 μL of stop solution, following the same sample processing method as the dialysis samples. The % Unbound, % Bound and % Recovery were calculated using the following equations: […]
in which F is the analyte concentration or peak area ratio of analyte/internal standard on the buffer (receiver) side of the membrane, T is the analyte concentration or peak area ratio of analyte/internal standard on the matrix (donor) side of the membrane, and T0 is the analyte concentration or the peak area ratio of analyte/internal standard in the loading matrix sample at time zero.

[5] = test system: CYP1A2, CYP2C9, CYP2C19, CYP2D6 and CYP3A4; assay: CYP inhibition evaluation in human liver microsomes; format: in vitro ADME; conditions: CYP1A2, 2C9, 2C19, 2D6, 3A4, up to 50 μM
Description: 20 μL of the substrate solutions of CYP1A2, CYP2C9, CYP2C19, CYP2D6 and CYP3A4 were each mixed with […] of the test compounds (final concentrations: 50 μM, 15 μM, 5 μM, 1.5 μM, 0.5 μM, 0.15 μM, 0.05 μM, 0 μM), followed by the addition of 158 μL of the HLM (Human liver microsome) working solution. Each of the mixtures was incubated at 37° C. for 10 minutes, and then mixed with 20 μL of NADPH cofactor, followed by incubation at 37° C. for additional 10 minutes. The reactions were terminated by adding 400 μL cold stop solution (200 ng/mL Tolbutamide and Labetalol in ACN). The samples are centrifuged at 4000 rpm for 20 minutes to precipitate protein. Next, 200 μL of the supernatant of each sample was transferred to 100 μL HPLC water and shaken for 10 minutes, and then analyzed by LC/MS/MS.

Omicron SARS-CoV-2 = conditions: FIG. 8, with Ref-2

| SMILES | binding site/mode in crystal structure (SARS-CoV-2 3CLpro [1]) | binding affinity (dissociation constant, Kd) in comparison with compound Ref-2 (SARS-CoV-2 3CLpro [2]) | antiviral potency in A549 cells in comparison with compound Ref-2 (SARS-CoV-2) | EC50 (SARS-CoV-2) [µM] | IC50 (SARS-CoV-2 3CLpro [3]) [µM] | free PPB ratio in comparison with compound Ref-2 [4] | effect on different CYP isoforms [5] | activity against Omicron SARS-CoV-2 in Caco-2 cells (Omicron SARS-CoV-2) |
| --- | --- | --- | --- | --- | --- | --- | --- | --- |
| CNC(=O)c1cc(Br)cc([N+](=O)[O-])c1N[C@H]1CN(C(=O)c2cncc3ccccc23)CCC1(F)F [Compound 19, (S)-5-bromo-2-((4,4-difluoro-1-(isoquinoline-4-carbonyl)piperidin-3-yl)amino)-N-methyl-3-nitrobenzamide] | bound into the catalytic pocket of 3CLpro | higher binding affinity | better antiviral potency | < 0.1 | < 0.1 | – | – | – |
| O=C(NC1CC(F)(F)C1)c1cc(Br)cc([N+](=O)[O-])c1N[C@H]1CN(C(=O)c2cncc3ccccc23)CC12CC2 [Compound 30, (R)-5-bromo-N-(3,3-difluorocyclobutyl)-2-((5-(isoquinoline-4-carbonyl)-5-azaspiro[2.4]heptan-7-yl)amino)-3-nitrobenzamide] | – | higher binding affinity | better antiviral potency | < 0.1 | < 0.1 | – | – | – |
| CNC(=O)c1cc(Cl)cc([N+](=O)[O-])c1N[C@H]1CN(C(=O)c2cncc3ccn(C)c23)CCC1(F)F [Compound 86, (S)-5-chloro-2-((4,4-difluoro-1-(1-methyl-1H-pyrrolo [3,2-c]pyridine-7-carbonyl)piperidin-3-yl)amino)-N-methyl-3-nitrobenzamide] | – | – | – | – | < 0.1 | better free PPB ratios | – | – |
| CNC(=O)c1cc(Cl)cc([N+](=O)[O-])c1N[C@H]1CN(C(=O)c2cncc3ccncc23)CCC1(F)F [Compound 97, (S)-5-chloro-2-((4,4-difluoro-1-(2,6-naphthyridine-4-carbonyl)piperidin-3-yl)amino)-N-methyl-3-nitrobenzamide] | – | – | – | – | < 0.1 | better free PPB ratios | little effect on different CYP isoforms | – |
| CNC(=O)c1cc(Cl)cc([N+](=O)[O-])c1N[C@H]1CN(C(=O)c2cncc3cccnc23)CCC1(F)F [Compound 98, (S)-5-chloro-2-((4,4-difluoro-1-(1,6-naphthyridine-8-carbonyl)piperidin-3-yl)amino)-N-methyl-3-nitrobenzamide] | bind to 3CLpro similar to that of Compound 19 | – | – | < 0.1 | < 0.1 | better free PPB ratios | little effect on different CYP isoforms | stronger activity against Omicron SARS-CoV-2 |
| CC(C)(O)CNC(=O)c1cc(Br)cc([N+](=O)[O-])c1N[C@H]1CN(C(=O)c2cncc3ccccc23)CCC1(F)F [Compound 154, (S)-5-bromo-2-((4,4-difluoro-1-(isoquinoline-4-carbonyl)piperidin-3-yl)amino)-N-(2-hydroxy-2-methylpropyl)-3-nitrobenzamide] | – | – | – | < 0.1 | < 0.1 | – | – | – |
| Cn1cc(NC(=O)c2cc(Br)cc([N+](=O)[O-])c2N[C@H]2CN(C(=O)c3cncc4ccccc34)CCC2(F)F)cn1 [Compound 155, (S)-5-bromo-2-((4,4-difluoro-1-(isoquinoline-4-carbonyl)piperidin-3-yl)amino)-N-(1-methyl-1H-pyrazol-4-yl)-3-nitrobenzamide] | – | – | – | < 0.1 | < 0.1 | – | – | – |
| C=CCNC(=O)c1cc(Br)cc([N+](=O)[O-])c1N[C@H]1CN(C(=O)c2cncc3ccccc23)CCC1(F)F [Compound 156, (S)-N-ally1-5-bromo-2-((4,4-difluoro-1-(isoquinoline-4-carbonyl)piperidin-3-yl)amino)-3-nitrobenzamide] | – | – | – | < 0.1 | < 0.1 | – | – | – |
| CC1(NC(=O)c2cc(Br)cc([N+](=O)[O-])c2N[C@H]2CN(C(=O)c3cncc4ccccc34)CCC2(F)F)CC1 [Compound 157, (S)-5-bromo-2-((4,4-difluoro-1-(isoquinoline-4-carbonyl)piperidin-3-yl)amino)-N-(1-methylcyclopropyl)-3-nitrobenzamide] | – | – | – | < 0.1 | < 0.1 | – | – | – |
| O=C(NC1CC(F)(F)C1)c1cc(Cl)cc([N+](=O)[O-])c1N[C@H]1CN(C(=O)c2cncc3ccccc23)CCC1(F)F [Compound 158, (S)-5-chloro-2-((4,4-difluoro-1-(isoquinoline-4-carbonyl)piperidin-3-yl)amino)-N-(3,3-difluorocyclobutyl)-3-nitrobenzamide] | – | – | – | < 0.1 | < 0.1 | – | – | – |
| CNC(=O)c1cc(Cl)cc([N+](=O)[O-])c1N[C@H]1CN(C(=O)c2cncc3cccnc23)CC[C@@H]1F [Compound 170, 5-chloro-2-(((3S, 4S)-4-fluoro-1-(1,6-naphthyridine-8-carbonyl)piperidin-3-yl)amino)-N-methyl-3-nitrobenzamide] | – | – | – | – | < 0.1 | better free PPB ratios | little effect on different CYP isoforms | – |
